Assay results taken from patent US20160280699A1, “SUBSTITUTED PHENYLALANINE DERIVATIVES” (BAYER PHARMA AKTIENGESELLSCHAFT, priority 2013, published 2016).
Where a name gives a salt, the structure may show the parent alone.

Columns and labels:
human factor XIa = target: T1, human factor XIa (Homo sapiens, UniProt P03951); test: Measurement of FXIa inhibition (fluorogenic peptide substrate Boc-Glu(OBzl)-Ala-Arg-AMC); format: biochemical; settings: factor XIa from Kordia, 15 min preincubation, 30 min at 22° C., fluorescence
T1 construct: purchased Kordia
T1 sequence (P03951 388-625 limits assumed): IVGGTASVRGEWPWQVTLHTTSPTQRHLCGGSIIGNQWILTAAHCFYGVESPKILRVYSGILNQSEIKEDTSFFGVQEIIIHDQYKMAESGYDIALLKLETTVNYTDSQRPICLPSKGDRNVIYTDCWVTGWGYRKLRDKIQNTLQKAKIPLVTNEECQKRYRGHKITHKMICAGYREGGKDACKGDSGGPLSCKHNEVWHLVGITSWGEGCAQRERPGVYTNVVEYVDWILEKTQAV
T1 sequence (P03951 19-387 partner limits assumed): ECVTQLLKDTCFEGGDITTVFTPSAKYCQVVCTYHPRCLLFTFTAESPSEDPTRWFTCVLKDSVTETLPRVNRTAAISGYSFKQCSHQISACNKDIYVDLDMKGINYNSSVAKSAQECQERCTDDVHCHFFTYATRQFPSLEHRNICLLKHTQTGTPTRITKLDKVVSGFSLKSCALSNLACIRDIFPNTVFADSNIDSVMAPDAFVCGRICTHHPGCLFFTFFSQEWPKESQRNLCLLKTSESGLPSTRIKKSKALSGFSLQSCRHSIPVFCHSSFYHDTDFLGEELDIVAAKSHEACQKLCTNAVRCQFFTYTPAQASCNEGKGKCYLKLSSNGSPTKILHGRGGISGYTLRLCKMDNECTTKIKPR
Method: The factor XIa inhibition of the substances according to the invention is determined using a biochemical test system which utilizes the reaction of a peptidic factor XIa substrate to determine the enzymatic activity of human factor XIa. Here, factor XIa cleaves from the peptic factor XIa substrate the C-terminal aminomethylcoumarin (AMC), the fluorescence of which is measured. The determinations are carried out in microtitre plates.
Test substances are dissolved in dimethyl sulphoxide and serially diluted in dimethyl sulphoxide (3000 μM to 0.0078 μM; resulting final concentrations in the test: 50 μM to 0.00013 μM). In each case 1 μl of the diluted substance solutions is placed into the wells of white microtitre plates from Greiner (384 wells). Subsequently, the following are added successively: 20 μl of assay buffer (50 mmol/l Tris buffer pH 7.4; 100 mmol/l sodium chloride; 5 mmol/l calcium chloride; 0.1% bovine serum albumin) and 20 μl of factor XIa from Kordia (0.45 nM in assay buffer). After 15 min of incubation, the enzyme reaction is started by addition of 20 μl of the factor XIa substrate Boc-Glu(OBzl)-Ala-Arg-AMC dissolved in assay buffer (10 μM in assay buffer) from Bachem, the mixture is incubated at room temperature (22° C.) for 30 min and fluorescence is then measured (excitation: 360 nm, emission: 460 nm). The measured emissions of the test batches with test substance are compared to those of control batches without test substance (only dimethyl sulphoxide instead of test substance in dimethyl sulphoxide), and IC50 values are calculated from the concentration/activity relationships.

human and animal plasma = test: Determination of anticoagulatory activity: activated partial thromboplastin time (aPTT) in plasma; format: biochemical; settings: concentration of test substance which brings about a 1.5-fold extension of the aPTT, 37° C., C.K. Prest kit
Method: The anticoagulatory activity of the test substances is determined in vitro in human and animal plasma (for example mouse, rat, rabbit, pig and dog plasma). To this end, blood is drawn off in a mixing ratio of sodium citrate/blood of 1:9 using a 0.11 molar sodium citrate solution as receiver. Immediately after the blood has been drawn off, it is mixed thoroughly and centrifuged at about 4000 g for 15 minutes. The supernatant is pipetted off.
The activated partial thromboplastin time (aPTT) is determined in the presence of varying concentrations of test substance or the corresponding solvent using a commercial test kit (C.K. Prest from Diagnostica Stago). The test compounds are incubated with the plasma and the PTT reagent (cephalin, kaolin) at 37° C. for 3 minutes. Coagulation is then started by addition of a 25 mM aqueous calcium chloride solution, and the time when coagulation occurs is determined. The concentration of test substance which brings about a 1.5-fold extension of the aPTT is determined Activity data from this test are listed in Table B below: […]

| IC50 (human factor XIa) | SMILES | aPTT (human and animal plasma) |
| --- | --- | --- |
| 5.2 nM | NC[C@H]1CC[C@H](C(=O)N[C@@H](Cc2ccc(-c3ccncc3)cc2)C(=O)Nc2ccc(-c3nn[nH]n3)cc2)CC1 [Example 11, N-alpha-{[trans-4-(Aminomethyl)cyclohexyl]carbonyl}-4-pyridin-4-yl-N-[4-(2H-tetrazol-5-yl)phenyl]-L-phenylalaninamide hydrochloride] | 0.24 µmol/L |
| 3.7 nM | Cc1nc(N)ccc1-c1ccc(C[C@H](NC(=O)[C@H]2CC[C@H](CN)CC2)C(=O)Nc2ccc(-c3nnn[nH]3)cc2)cc1 [Example 51, N-alpha-{[trans-4-(Aminomethyl)cyclohexyl]carbonyl}-4-(6-amino-2-methylpyridin-3-yl)-N-[4-(1H-tetrazol-5-yl)phenyl]-L-phenylalaninamide hydrochloride] | 0.19 µmol/L |
| 3.6 nM | Cc1cnccc1-c1ccc(C[C@H](NC(=O)[C@H]2CC[C@H](CN)CC2)C(=O)Nc2ccc3c(=O)[nH][nH]c3c2)cc1 [Example 23, N-alpha-{[trans-4-(Aminomethyl)cyclohexyl]carbonyl}-4-(3-methylpyridin-4-yl)-N-(3-oxo-2,3-dihydro-1H-indazol-6-yl)-L-phenylalaninamide hydrochloride] | 0.24 µmol/L |
| 5.6 nM | Cc1ncccc1-c1ccc(C[C@H](NC(=O)[C@H]2CC[C@H](CN)CC2)C(=O)Nc2ccc3c(=O)[nH][nH]c3c2)cc1 [Example 27, N-alpha-{[trans-4-(Aminomethyl)cyclohexyl]carbonyl}-4-(2-methylpyridin-3-yl)-N-(3-oxo-2,3-dihydro-1H-indazol-6-yl)-L-phenylalaninamide hydrochloride] | 0.24 µmol/L |
| 3.7 nM | NC[C@H]1CC[C@H](C(=O)N[C@@H](Cc2ccc(-c3ccnc(N4CCOCC4)c3F)cc2)C(=O)Nc2ccc(-c3nn[nH]n3)cc2)CC1 [Example 46, N-alpha-{[trans-4-(Aminomethyl)cyclohexyl]carbonyl}-4-[3-fluoro-2-(morpholin-4-yl)pyridin-4-yl]-N-[4-(2H-tetrazol-5-yl)phenyl]-L-phenylalaninamide hydrochloride] | 0.45 µmol/L |
| 6.1 nM | CN(C)c1ncc(-c2ccc(C[C@H](NC(=O)[C@H]3CC[C@H](CN)CC3)C(=O)Nc3ccc(-c4nn[nH]n4)cc3)cc2)c(OCc2ccccc2)n1 [Example 22, N-alpha-{[trans-4-(Aminomethyl)cyclohexyl]carbonyl}-4-[4-(benzyloxy)-2-(dimethylamino)-pyrimidin-5-yl]-N-[4-(2H-tetrazol-5-yl)phenyl]-L-phenylalaninamide hydrochloride] | 0.27 µmol/L |
| 2 nM | NC[C@H]1CC[C@H](C(=O)N[C@@H](Cc2ccc(-c3ccc(N4CCOCC4)nc3)c(F)c2)C(=O)Nc2ccc(-c3nn[nH]n3)cc2)CC1 [Example 44, N-alpha-{[trans-4-(Aminomethyl)cyclohexyl]carbonyl}-3-fluoro-4-[6-(morpholin-4-yl)pyridin-3-yl]-N-[4-(2H-tetrazol-5-yl)phenyl]-L-phenylalaninamide hydrochloride] | 0.22 µmol/L |
| 6.9 nM | NC[C@H]1CC[C@H](C(=O)N[C@@H](Cc2ccc(-c3cncc(S(=O)(=O)NC4CCNCC4)c3)cc2)C(=O)Nc2ccc(-c3nnn[nH]3)cc2)CC1 [Example 52, N-alpha-{[trans-4-(Aminomethyl)cyclohexyl]carbonyl}-4-[5-(piperidin-4-ylsulphamoyl)pyridin-3-yl]-N-[4-(1H-tetrazol-5-yl)phenyl]-L-phenylalaninamide hydrochloride] | 0.21 µmol/L |
| 20 nM | NC[C@H]1CC[C@H](C(=O)N[C@@H](Cc2ccc(-c3ccnc(N4CCNCC4)c3)cc2)C(=O)Nc2ccc(-c3nn[nH]n3)cc2)CC1 [Example 33, N-alpha-{[trans-4-(Aminomethyl)cyclohexyl]carbonyl}-4-[2-(piperazin-1-yl)pyridin-4-yl]-N-[4-(2H-tetrazol-5-yl)phenyl]-L-phenylalaninamide hydrochloride] | 0.29 µmol/L |
